For assay [1], the system named is human melanoma A375 cells. Briefly: Cell permeabilization to DAPI, flow cytometry analysis. Format: cell-based. Particulars: for permeabilization of the cells to DAPI: 730 nm light at 80 mW/cm^2 for 10 min; for IC50: Homo sapiens, A-375, 10 min, 730 nm LED light at 80 mW/cm^2 for 10 min, DAPI positive cells, read-out: VDA IC50 (effective concentration needed to permeabilize cells by 50%). The procedure: The activity of plasmon-driven MJHs to open cell membranes by VDA upon NIR light-activation was evaluated in human melanoma A375 cells. When the cell membranes were open by VDA, DAPI enters immediately into the cells and stain the nucleus, and flow cytometry analysis was used to quantify the percentage of DAPI positive cells at variable concentrations of MJH. The flow cytometry analysis is conducted immediately after the cells were treated with 730 nm LED light at 80 mW/cm^2 for 10 min. Typically, it took ˜30 s to start cell counting and observe that DAPI already had entered into the cell membrane-compromised cells but not in the controls without VDA action. This is indicative of a rapid necrotic cell death and cell membrane permeabilization to DAPI by VDA action. The effective concentration needed to permeabilize cells by 50% (VDA IC50) was estimated for each molecule.
The flow cytometry data was analyzed using FlowJo software version 10.5.3. Then, a wide polygonal gate was drawn as shown in FIG. 33A since we were interested in detecting any cell death after treatment, we were not only interested in measuring healthy cell populations. Sometimes, we observed that the death cell population upon treatment shifted outside the gate if a narrow gate was used. Then, the singlets were selected and the DAPI fluorescence intensity was plotted versus the SSC-A and the gate for DAPI positive cells was drawn as shown in FIG. 33C and the analysis was applied to all samples in the group. In FIG. 33D, a DAPI positive population is observed in the same analysis group. This analysis was applied to calculate the percentage of DAPI positive cells.
Cell Permeabilization and flow cytometry analysis. A375 cells were cultured as described before. One day before the treatment, cells were inoculated at 5 million cells per dish (10 cm polystyrene tissue culture dish). The cells were harvested using 0.05% trypsin-EDTA (Gibco, 25-300-054), then the cells were counted and were adjusted to a cell density of 2×10^5 cells/mL in DMEM media with L-glutamine, 4.5 g/L glucose, and sodium pyruvate (Corning Inc. 10013CV) and supplemented with 10% FBS (Corning, 35010CV), 2×MEM vitamin solution (Gibco, 11120052), 1×MEM non-essential amino acid solution (Gibco, 11140050) and penicillin/streptomycin. 1 mL of this cell suspension containing 2×10^5 cells was used in each treatment. In a 1.5 mL Eppendorf tube, […] containing 2 mM Cy7.5-amine (or other cyanine molecule or other concentration) in DMSO (Fisher, 99.7%) was placed in the bottom of the tube, then 1 mL of the cell suspension was added into the tube to get final concentration of 2 μM of Cy7.5-amine containing 0.1% DMSO and 2×10^5 cells. The mixture was then incubated at 37° C. and 5% CO2 for 30 min. Then, 1 mM DAPI was added into the cell suspension. Then, the cells suspension was transferred to a […] tissue culture dish and immediately the cells were treated under the light beam of NIR light of 730 nm at 80 mW/cm^2 (or adjusted powers down to 20 mW/cm^2) for 10 min (or adjusted illumination times down to 30 s) using LED light source (PRIZMATIX, UHP-F-730, Israel) which covered the entire dish. While the cells were treated, the dish was placed on top of an aluminum block painted black, so that the excess NR light and that was not reflected back into the cell suspension while the aluminum block actED as a heat-sink, maintaining a constant temperature in the dish during the irradiation. The instrument for flow cytometry analysis (SONY, MA900 Multi-Application Cell Sorter) was already set up and calibrated by the time the light treatment was finished. Therefore, as soon as the 10-min light treatment was completed, the cell suspension was rapidly transferred from the 35 mm dish to a flow cytometry tube and the cells were analyzed for DAPI permeabilization and Cy7.5-amine binding. It took ˜30 s to load the sample and to start the analysis. […]
(In general: A flow cytometer gives signals particle by particle.)

A further assay relates to A375 cells. Description: Clonogenic assay. Format: cell-based, human. To be noted: Homo sapiens, A-375, read-out: lethal concentration to kill the cell population by 50% (VDA IC50). The procedure:
The clonogenic assay was conducted to confirm that cancer cells treated by plasmon-driven MJH are indeed death upon NIR-light activation (FIG. 18). Three molecules were analyzed: the most VDA active BL-204, medium active BL-141-2 and low active Cy7-amine. […] This was accomplished by incubating the MJH molecules with the A375 cells for 50 min and immediately activate the plasmon-driven MJH using 730 nm NIR-light at 80 mW/cm^2 for 10 min. This is considered a short contact time between the MJH and the A375 cells.
Clonogenic assay. A375 cells were seeded in 35 mm cell culture dishes at predetermined densities to allow for an approximately equal number of resultant colonies. The next day, cells were treated with Cy7.5-amine at variable concentration and with or without 730 nm light at 80 mWcm^−2 for 10 min. The cells were incubated with Cy7.5-amine for 50 min before the illumination, the media was replaced with fresh media after the illumination and cells were cultured for 6 days to allow for colony formation. Cells were then washed once with PBS and fixed-stained in a 0.5% (w/v) crystal violet in methanol/water solution (1:1) during 10 min. The excess of crystal violet was washed off with water, the plates were dried at room temperature and then the colonies were counted using ImageJ software version 1.52a, and the survival fraction was determined. All treatments were in triplicate.

Consider five molecules from US20250170098A1, “MOLECULAR JACKHAMMER FOR MECHANICAL DESTRUCTION OF CELLULAR STRUCTURE” (William Marsh Rice University, priority 2022, published 2025).

In the case of `CC1(C)C(/C=C/C=C/C=C/C=C2\N(CCCCS(=O)(=O)O)c3ccc4ccccc4c3C2(C)C)=[N+](CCCCS(=O)(=O)[O-])c2ccc3ccccc3c21` [ICG, indocynine green], the “permeabilization of the cells to DAPI” value in assay [1] (32 μM) was 2%; in assay [1] (400 μM), 14%. In addition, the IC50 in assay [1] is above 8 µM.

Consider `CN(C)CC[N+]1=C(/C=C/C2=CC(=C/C=C3/N(C)c4ccc5ccccc5c4C3(C)C)/CCC2)C(C)(C)c2c1ccc1ccccc21` [BL-204, 3-(2-(dimethylamino)ethyl)-1,1-dimethyl-2-((E)-2-((E)-3-((E)-2-(1,1,3-trimethyl-1,3-dihydro-2H-benzo[e]indol-2-ylidene)ethylidene)cyclohex-1-en-1-yl)vinyl)-1H-benzo[e]indol-3-ium], for which the IC50 in assay [1] was determined as 0.12 µM; in the assay with A375 cells, 0.045 µM.

In the case of `CN1/C(=C/C=C2C=C(/C=C/c3ccc4ccccc4[n+]3C)CCC/2)C=Cc2ccccc21` [BL-206], the IC50 in assay [1] was above 8 µM.

Regarding `CN(C)CCCCCC[N+]1=C(/C=C/C2=CC(=C/C=C3/N(C)c4ccc5ccccc5c4C3(C)C)/CCC2)C(C)(C)c2c1ccc1ccccc21` [BL-141-2, 3-(6-(dimethylamino)hexyl)-1,1-dimethyl-2-((E)-2-((E)-3-((E)-2-(1,1,3-trimethyl-1,3-dihydro-2H-benzo[e]indol-2-ylidene)ethylidene)cyclohex-1-en-1-yl)vinyl)-1H-benzo[e]indol-3-ium], the IC50 in the assay on A375 cells was determined as 0.065 µM.

As to `CN1/C(=C\C=C2C=C(/C=C/C3=[N+](CCCCCC(=O)NCCCCCCN)c4ccccc4C3(C)C)CCC\2)C(C)(C)c2ccccc21` [Cy7-amine], in assay [1] (1 μM, 730 nm LED at 80 mW/cm^2 for 10 min), the “permeabilization to DAPI staining, percentage of cells” value is 0.8%. For the same molecule, in assay [1] (680 nm LED, 80 mWcm^−2 for 10 min), the “effect of 680 nm excitation on opening cell membranes” value is reported as “improves the MJH effect for opening cell membranes”. Besides, in the assay with A375 cells, the IC50 worked out at 0.175 µM.
